{"source": "ChEMBL document CHEMBL4007425", "about": "“Drug Repurposing of Histone Deacetylase Inhibitors That Alleviate Neutrophilic Inflammation in Acute Lung Injury and Idiopathic Pulmonary Fibrosis via Inhibiting Leukotriene A4 Hydrolase and Blocking LTB4 Biosynthesis” (J Med Chem, 2017)", "key": {"[1]": {"biological_target": "T1, Polyunsaturated fatty acid lipoxygenase ALOX15 (Homo sapiens) (UniProt P16050)", "T1 sequence (whole entry)": "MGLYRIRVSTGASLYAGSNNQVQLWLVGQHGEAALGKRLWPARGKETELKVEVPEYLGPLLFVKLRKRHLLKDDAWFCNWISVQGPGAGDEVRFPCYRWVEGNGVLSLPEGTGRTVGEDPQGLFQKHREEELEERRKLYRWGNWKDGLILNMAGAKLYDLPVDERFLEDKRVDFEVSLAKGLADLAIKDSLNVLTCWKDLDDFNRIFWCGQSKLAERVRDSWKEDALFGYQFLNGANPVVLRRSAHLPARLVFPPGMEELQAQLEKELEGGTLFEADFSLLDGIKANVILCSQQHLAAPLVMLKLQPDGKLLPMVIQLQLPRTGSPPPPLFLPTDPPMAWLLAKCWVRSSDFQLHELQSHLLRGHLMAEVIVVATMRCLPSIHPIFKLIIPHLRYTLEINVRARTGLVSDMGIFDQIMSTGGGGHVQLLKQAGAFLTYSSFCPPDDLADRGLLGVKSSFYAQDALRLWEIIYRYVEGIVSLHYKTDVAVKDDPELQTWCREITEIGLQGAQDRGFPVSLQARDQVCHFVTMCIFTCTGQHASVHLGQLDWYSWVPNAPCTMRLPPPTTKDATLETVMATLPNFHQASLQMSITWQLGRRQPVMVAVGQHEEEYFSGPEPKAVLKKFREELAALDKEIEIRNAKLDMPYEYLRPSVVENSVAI", "experiment": "Inhibition of recombinant human N-terminal His-tagged 15-LOX-1 expressed in Escherichia coli using arachidonic acid as substrate measured every 2 min intervals for 20 mins by fluorescence analysis"}, "[2]": {"biological_target": "T2, Leukotriene A-4 hydrolase (Homo sapiens) (UniProt P09960)", "T2 sequence (whole entry)": "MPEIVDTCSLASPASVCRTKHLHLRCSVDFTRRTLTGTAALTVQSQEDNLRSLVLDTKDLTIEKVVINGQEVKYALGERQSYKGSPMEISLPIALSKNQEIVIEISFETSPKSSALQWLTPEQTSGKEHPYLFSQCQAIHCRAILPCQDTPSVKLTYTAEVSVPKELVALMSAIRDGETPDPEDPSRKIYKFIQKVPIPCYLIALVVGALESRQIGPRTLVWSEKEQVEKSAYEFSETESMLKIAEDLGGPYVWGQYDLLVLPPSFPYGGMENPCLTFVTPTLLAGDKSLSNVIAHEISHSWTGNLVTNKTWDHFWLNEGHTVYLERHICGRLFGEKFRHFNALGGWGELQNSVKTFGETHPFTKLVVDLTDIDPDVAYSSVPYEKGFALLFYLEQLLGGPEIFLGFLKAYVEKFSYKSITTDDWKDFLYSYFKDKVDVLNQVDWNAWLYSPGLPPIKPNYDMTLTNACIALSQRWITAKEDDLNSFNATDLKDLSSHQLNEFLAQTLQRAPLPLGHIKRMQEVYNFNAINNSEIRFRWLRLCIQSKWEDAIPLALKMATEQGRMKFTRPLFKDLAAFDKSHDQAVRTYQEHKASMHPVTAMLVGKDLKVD", "description": "Binding affinity to recombinant human LTA4H hydrolase assessed as change in melting temperature at 50 uM by SYPRO orange dye-based thermofluor assay"}, "[3]": {"biological_target": "T3, Polyunsaturated fatty acid lipoxygenase ALOX12 (Homo sapiens) (UniProt P18054)", "T3 sequence (whole entry)": "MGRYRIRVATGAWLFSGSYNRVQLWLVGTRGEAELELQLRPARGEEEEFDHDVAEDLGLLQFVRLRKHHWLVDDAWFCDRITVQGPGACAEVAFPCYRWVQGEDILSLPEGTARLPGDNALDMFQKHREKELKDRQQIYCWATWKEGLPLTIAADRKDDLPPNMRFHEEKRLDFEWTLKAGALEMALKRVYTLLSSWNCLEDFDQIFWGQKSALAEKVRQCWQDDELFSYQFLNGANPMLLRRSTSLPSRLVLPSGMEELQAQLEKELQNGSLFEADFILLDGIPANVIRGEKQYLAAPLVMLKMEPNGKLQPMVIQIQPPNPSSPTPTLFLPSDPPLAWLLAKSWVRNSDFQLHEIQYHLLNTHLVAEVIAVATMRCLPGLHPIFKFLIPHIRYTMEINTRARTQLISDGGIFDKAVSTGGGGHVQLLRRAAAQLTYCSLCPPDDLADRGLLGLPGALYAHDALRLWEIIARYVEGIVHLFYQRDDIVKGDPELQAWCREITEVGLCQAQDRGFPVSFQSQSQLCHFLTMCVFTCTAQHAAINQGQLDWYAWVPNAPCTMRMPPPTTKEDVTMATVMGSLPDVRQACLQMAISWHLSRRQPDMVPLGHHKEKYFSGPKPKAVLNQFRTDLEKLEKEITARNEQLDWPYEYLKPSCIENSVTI", "experiment": "Inhibition of recombinant human N-terminal His-tagged 12-LOX expressed in Escherichia coli assessed as conversion of arachidonic acid to HETEs measured for 300 secs by UV-visible spectrophotometric analysis"}, "[4]": {"biological_target": "T4, Leukotriene A-4 hydrolase (Mus musculus, UniProt P24527)", "T4 sequence (P24527 whole entry)": "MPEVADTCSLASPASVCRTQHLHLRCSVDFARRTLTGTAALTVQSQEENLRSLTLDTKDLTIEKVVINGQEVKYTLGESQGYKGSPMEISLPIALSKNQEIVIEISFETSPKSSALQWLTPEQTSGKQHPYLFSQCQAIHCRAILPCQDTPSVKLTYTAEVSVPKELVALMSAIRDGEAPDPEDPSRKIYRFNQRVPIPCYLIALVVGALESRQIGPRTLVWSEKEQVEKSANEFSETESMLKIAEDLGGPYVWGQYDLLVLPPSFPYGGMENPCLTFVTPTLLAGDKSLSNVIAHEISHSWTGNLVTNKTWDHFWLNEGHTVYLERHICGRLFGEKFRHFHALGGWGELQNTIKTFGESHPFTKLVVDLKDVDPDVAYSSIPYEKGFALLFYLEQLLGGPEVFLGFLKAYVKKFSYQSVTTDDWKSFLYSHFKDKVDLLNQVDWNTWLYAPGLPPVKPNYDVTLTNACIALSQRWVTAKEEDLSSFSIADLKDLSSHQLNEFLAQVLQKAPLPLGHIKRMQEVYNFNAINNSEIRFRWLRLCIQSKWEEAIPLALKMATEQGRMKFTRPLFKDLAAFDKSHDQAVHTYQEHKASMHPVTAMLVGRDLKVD", "experiment": "Inhibition of LTA4H in C57BL/6 mouse assessed as reduction in LTB4 production pre-incubated for 30 mins before 5-(methylamino)-2-({(2R,3R,6S,8S,9R,11R)-3,9,11-trimethyl-8-[(1S)-1-methyl-2-oxo-2-(1H-pyrrol-2-yl)ethyl]-1,7-dioxaspiro[5.5]undec-2-yl}methyl)-1,3-benzoxazole-4-carboxylic acid stimulation for 30 mins by ELISA"}, "Mus musculus [5]": {"test_system": "Mus musculus", "experiment": "Anti-inflammatory activity in BLM-induced C57BL/6 mouse model of acute lung injury assessed as reduction in IL-1beta mRNA level in BALF compound administered intraperitoneally once daily for 7 days post BLM challenge measured on day 7 by qRT-PCR method", "format": "functional"}, "Mus musculus [6]": {"test_system": "Mus musculus", "experiment": "Anti-inflammatory activity in LPS-induced C57BL/6 mouse model of acute lung injury assessed as reduction in pulmonary edema by measuring lung wet/dry ratio at 25 mg/kg, ip pretreated for 1 hr followed LPS challenge after 24 hrs […]", "format": "functional, organism-based"}}, "note": "Activity calls are given as the source filed them. No cut-off for these calls is given here.", "data": [{"compound": "O=C(CCCCCCC(=O)Nc1ccccc1)NO", "note": "[VORINOSTAT]", "values": [{"measurement": "INH", "setting": "[1]", "result": "> 50", "unit": "µM"}, {"measurement": "ΔTm", "setting": "[2]", "result": 1.47, "unit": "°C"}, {"measurement": "INH", "setting": "[3]", "result": "> 50", "unit": "µM"}, {"measurement": "IC50", "setting": "[4]", "result": 6.15, "unit": "µM"}, {"measurement": "Activity", "setting": "Mus musculus [5]", "result": "Dose-dependent effect"}, {"measurement": "Activity", "setting": "Mus musculus [6]", "result": "Active"}]}, {"compound": "CN(C)c1ccc(C(=O)NCCCCCCC(=O)NO)cc1", "values": [{"measurement": "INH", "setting": "[1]", "result": "> 50", "unit": "µM"}, {"measurement": "ΔTm", "setting": "[2]", "result": 2.35, "unit": "°C"}, {"measurement": "INH", "setting": "[3]", "result": "> 50", "unit": "µM"}, {"measurement": "IC50", "setting": "[4]", "result": 0.79, "unit": "µM"}, {"measurement": "Activity", "setting": "Mus musculus [5]", "result": "Dose-dependent effect"}, {"measurement": "Activity", "setting": "Mus musculus [6]", "result": "Active"}]}]}
